The source of these data is patent US20260365653A1, “IRREVERSIBLE MUTEGFR INHIBITORS” (Bayer Aktiengesellschaft, priority 2022, published 2026).

Assay [1] concerns the target T1, mutEGFR (D770_N771insSVD) (Homo sapiens, UniProt P00533, DUP768-770).
T1 construct: GST-EGFR #3 (SVD between D770 and N771); made in house; host or cells: Sf9 insect cells (baculovirus)
The assay can be described thus: Exon20-Mutant-EGFR (D770_N771insSVD) kinase assay (TR-FRET). The format is biochemical.

The target of assay [2] is T2, mutEGFR (D770_N771insNPG, T790) (Homo sapiens, UniProt P00533, INS770NPG/T790M).
T2 construct: exact insNPG construct not described; in-house EGFR proteins were N-terminal GST fusions from baculovirus/insect cells (borders R669-A1210 given only for WT, insSVD, insASV)
T2 sequence (P00533 with tags, fused parts or gaps INS770NPG/T790M limits assumed): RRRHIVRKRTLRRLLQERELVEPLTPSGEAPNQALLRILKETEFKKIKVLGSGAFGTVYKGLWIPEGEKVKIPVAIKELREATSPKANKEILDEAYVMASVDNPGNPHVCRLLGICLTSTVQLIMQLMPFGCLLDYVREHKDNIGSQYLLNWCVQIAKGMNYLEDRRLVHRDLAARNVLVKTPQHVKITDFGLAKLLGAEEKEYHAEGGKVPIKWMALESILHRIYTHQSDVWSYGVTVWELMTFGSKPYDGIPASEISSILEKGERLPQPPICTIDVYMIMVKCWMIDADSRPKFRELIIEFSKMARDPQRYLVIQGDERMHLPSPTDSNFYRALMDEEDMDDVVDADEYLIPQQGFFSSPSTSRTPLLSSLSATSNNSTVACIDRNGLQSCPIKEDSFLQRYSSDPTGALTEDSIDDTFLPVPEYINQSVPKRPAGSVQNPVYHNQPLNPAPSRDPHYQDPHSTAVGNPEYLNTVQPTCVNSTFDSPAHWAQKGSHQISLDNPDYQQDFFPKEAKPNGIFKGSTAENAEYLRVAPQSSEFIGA
The assay can be described thus: mutEGFR (D770_N771insNPG, T790) kinase assay. In kind it is biochemical. The text has this:
The different EGFR proteins used in the biochemical kinase activity inhibition assays were generated inhouse by expression in insect cells using Baculo Virus system and subsequent purification as described in the following paragraphs.
The cDNAs encoding the various protein sequences from human EGFR human (P00533) were optimized for expression in eukaryotic cells and synthesized by the GeneArt Technology at Life Technologies.

A further assay deals with BA/F3 (insSVD) cells. The assay can be described thus: Ba/F3-EGFR-insSVD cell survival assay (Cell Titer-Glo). The format is cell-based. As to the method: Cellular Data Description (WT, insSVD, insSVD T790M) 293T cells from ATCC were transfected with pBABEpuro expression constructs for WT EGFR or EGFR-insSVD, or EGFR-insSVD T790M, and pCL-Eco packaging vector using Fugene-6 transfection reagent from Promega. Plates were incubated at 37° C. for 48 h. Retrovirus was harvested by filtering the media supernatant through a 0.45 μm filter.
Ba/F3 cells purchased from DSMZ were grown in RPMI+10% FBS+10 ng/ml IL-3 and infected with filtered retroviral supernatant at a 1:2 dilution. Polybrene was added to a concentration of 8 μg/mL, plates were spun for 90 min, and incubated for 16 h at 37° C. 2 μg/mL puromycin was added to the infected cells 24 h after infection and cells were continually grown in the presence of puromycin and 10 ng/ml IL-3. Following stably expressing Ba/F3 cell lines were generated: Ba/F3-EGFR-WT, Ba/F3-EGFR-insSVD, Ba/F3-EGFR-insSVD T790M, (Ba/F3-vector-control).
For cell survival assays, Ba/F3 cells were grown to a density of 1-2 million cells per mL, spun down and resuspended in media without IL-3, and replated at a concentration of 200,000-500,000 cells per mL. The cells ectopically expressing WT EGFR, EGFR-insSVD, or EGFR-insSVD T790M were plated with 10 ng/ml Millipore Culture grade EGF. The cells ectopically expressing pBABEpuro empty vector were plated with 10 ng/mL IL-3.
2 days later, cells were plated in 50 µL in a 384 well plate at a concentration of 4000 cells per well for cells assayed in the absence of IL-3 and 2000 cells per well for cells assayed in the presence of IL-3. 100 nL of compound was added to each well using a 100 nL pin head, and plates were incubated at 37° C. for 48 h.
Cell viability was measured by adding 20 μL of Cell Titer-Glo Luminescent Cell Viability Reagent diluted 1:3 in PBS. Plates were sealed with Perkin Elmer Top-Seal, inverted several times to mix, and immediately centrifuged at 1000 rpm for 2 min. Plates were incubated in low light conditions for 8-10 min and luminescence was measured.
A general note: In ATP-based viability assays light output follows the ATP content of the culture.

The mark [3] stands for this setting: mutEGFR (D770_N771insSVD) kinase assay IC50, Table 2a, D770_N771insSVD, 2 mM ATP.
Setting [4] is: Mus musculus, BaF3, 48 h, Table 3a, cell survival, Cell Titer-Glo, with 10 ng/ml EGF, without IL-3.

T1 sequence (P00533 with tags, fused parts or gaps DUP768-770): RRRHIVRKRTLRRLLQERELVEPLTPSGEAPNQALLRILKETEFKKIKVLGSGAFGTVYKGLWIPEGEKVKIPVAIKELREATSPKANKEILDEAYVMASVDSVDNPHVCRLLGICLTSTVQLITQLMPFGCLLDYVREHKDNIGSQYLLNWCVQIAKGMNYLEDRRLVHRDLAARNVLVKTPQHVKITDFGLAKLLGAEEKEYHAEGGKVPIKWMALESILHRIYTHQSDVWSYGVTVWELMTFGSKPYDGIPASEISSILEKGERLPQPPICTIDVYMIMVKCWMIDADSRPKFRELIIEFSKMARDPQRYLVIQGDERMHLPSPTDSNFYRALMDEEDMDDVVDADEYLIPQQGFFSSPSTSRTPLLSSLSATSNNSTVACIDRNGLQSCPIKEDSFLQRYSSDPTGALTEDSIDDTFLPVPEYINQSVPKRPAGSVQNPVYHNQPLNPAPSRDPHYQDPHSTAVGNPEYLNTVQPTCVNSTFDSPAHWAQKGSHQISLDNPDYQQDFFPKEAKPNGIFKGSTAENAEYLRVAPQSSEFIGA

In the case of `C=CC(=O)N1CCn2nc(Nc3ccccc3)c(-c3ccncc3)c2C1` [Example 272, 1-[2-anilino-3-(pyridin-4-yl)-6,7-dihydropyrazolo[1,5-a]pyrazin-5(4H)-yl]prop-2-en-1-one], the IC50 in assay [1] (setting [3]) is 2.35 nM; in assay [2] (Table 2a, D770_N771insNPG), 10.4 nM; in the assay on BA/F3 (insSVD) cells (setting [4]) it was 87.8 nM.

For `CC1c2c(-c3ccnc4[nH]ccc34)c(-c3ccc(F)cc3)nn2CCN1C(=O)/C=C/CN(C)C` (single isomer, unassigned; isomer 1) [Example 255, 4-(dimethylamino)-1-[2-(4-fluorophenyl)-4-methyl-3-(1H-pyrrolo[2,3-b]pyridin-4-yl)-6,7-dihydropyrazolo[1,5-a]pyrazin-5(4H)-yl]but-2-en-1-one (isomer 1)], the 50% inhibitory concentration (IC50) was 3180 nM in assay [1] (setting [3]); 9610 nM in assay [2] (Table 2a, D770_N771insNPG); 296 nM in the assay on BA/F3 (insSVD) cells (setting [4]).

Turning to `C=CC(=O)N1CCn2nc(-c3ccc(C(F)(F)F)cc3)c(-c3ccncc3C3CC3)c2C1` [Example 55, 1-[3-(3-cyclopropylpyridin-4-yl)-2-[4-(trifluoromethyl)phenyl]-6,7-dihydropyrazolo[1,5-a]pyrazin-5(4H)-yl]prop-2-en-1-one], the 50% inhibitory concentration (IC50) in assay [1] (setting [3]) came to 350 nM; in assay [2] (Table 2a, D770_N771insNPG), 2540 nM; in the assay on BA/F3 (insSVD) cells (setting [4]) it was 744 nM.

Consider `C=CC(=O)N1Cc2c(-c3ccncc3)c(-c3ccc4ccsc4c3)nn2CC1C` (racemic) [Example 234, 1-[(6RS)-2-(1-benzothiophen-6-yl)-6-methyl-3-(pyridin-4-yl)-6,7-dihydropyrazolo[1,5-a]pyrazin-5(4H)-yl]prop-2-en-1-one], for which the 50% inhibitory concentration (IC50) in assay [1] (setting [3]) came out at 0.17 nM; in assay [2] (Table 2a, D770_N771insNPG), 0.331 nM; in the assay with BA/F3 (insSVD) cells (setting [4]), 122 nM.

Regarding `O=C(/C=C/CO)N1CCn2nc(-c3ccc(F)cc3)c(-c3ccncc3)c2C1` [Example 70, (2E)-1-[2-(4-fluorophenyl)-3-(pyridin-4-yl)-6,7-dihydropyrazolo[1,5-a]pyrazin-5(4H)-yl]-4-hydroxybut-2-en-1-one], the IC50 in assay [1] (setting [3]) stood at 26.1 nM; in assay [2] (Table 2a, D770_N771insNPG), 90.2 nM; with BA/F3 (insSVD) cells (setting [4]), 862 nM.

With `C=CC(=O)N1CCn2nc(Nc3ccc(OC)c(F)c3)c(-c3ccncc3)c2C1` [Example 96, 1-[2-(3-fluoro-4-methoxyanilino)-3-(pyridin-4-yl)-6,7-dihydropyrazolo[1,5-a]pyrazin-5(4H)-yl]prop-2-en-1-one], the IC50 was determined as 2030 nM in assay [1] (setting [3]); 7960 nM in assay [2] (Table 2a, D770_N771insNPG); 7930 nM in the assay on BA/F3 (insSVD) cells (setting [4]).

For `C=CC(=O)N1CCn2nc(-c3ccc(Cl)cc3F)c(-c3ccnc4[nH]ccc34)c2C1` [Example 104, 1-[2-(4-chloro-2-fluorophenyl)-3-(1H-pyrrolo[2,3-b]pyridin-4-yl)-6,7-dihydropyrazolo[1,5-a]pyrazin-5(4H)-yl]prop-2-en-1-one], the half-maximal inhibitory concentration (IC50) in assay [1] (setting [3]) was 1.66 nM; in assay [2] (Table 2a, D770_N771insNPG), 9.09 nM; in the assay with BA/F3 (insSVD) cells (setting [4]), 32 nM.

With `C=C(F)C(=O)N1Cc2c(-c3ccncc3)c(-c3ccc4ccsc4c3)nn2CC1C` (racemic) [Example 238, 1-[(RS)-2-(1-benzothiophen-6-yl)-6-methyl-3-(pyridin-4-yl)-6,7-dihydropyrazolo[1,5-a]pyrazin-5(4H)-yl]-2-fluoroprop-2-en-1-one], the IC50 in assay [1] (setting [3]) stood at 1.57 nM; in assay [2] (Table 2a, D770_N771insNPG), 2.21 nM; in the assay with BA/F3 (insSVD) cells (setting [4]) it was 68.7 nM.

With `C=CC(=O)N1Cc2c(-c3ccncc3)c(-c3ccc(OC)cc3)nn2C(C)C1` (single isomer, unassigned; isomer 1) [Example 274, 1-[2-(4-methoxyphenyl)-7-methyl-3-(pyridin-4-yl)-6,7-dihydropyrazolo[1,5-a]pyrazin-5(4H)-yl]prop-2-en-1-one (isomer 1)], the half-inhibitory concentration (IC50) came to 1.35 nM in assay [1] (setting [3]); 3.11 nM in assay [2] (Table 2a, D770_N771insNPG); 34.1 nM in the assay with BA/F3 (insSVD) cells (Table 3a, cell survival, Cell Titer-Glo, with 10 ng/ml EGF, without IL-3, 48 h).

In the case of `C=CC(=O)N1Cc2c(-c3ccnc4[nH]cc(C)c34)c(-c3ccc(F)cc3)nn2C[C@@H]1C` [Example 251, 1-[(6S)-2-(4-fluorophenyl)-6-methyl-3-(3-methyl-1H-pyrrolo[2,3-b]pyridin-4-yl)-6,7-dihydropyrazolo[1,5-a]pyrazin-5(4H)-yl]prop-2-en-1-one], the concentration for half-maximal inhibition (IC50) is 40.9 nM in assay [1] (setting [3]); 7.23 nM in assay [2] (Table 2a, D770_N771insNPG); 24.3 nM in the assay with BA/F3 (insSVD) cells (setting [4]).

Take `O=C(Nc1cc(-c2c(-c3ccc(F)cc3)nn3c2CN(C(=O)C2CO2)CC3)ccn1)C1CC1` (stereo not drawn) [Example 9, N-{4-[2-(4-fluorophenyl)-5-(oxirane-2-carbonyl)-4,5,6,7-tetrahydropyrazolo[1,5-a]pyrazin-3-yl]pyridin-2-yl}cyclopropanecarboxamide]: the IC50 was 64.5 nM in assay [1] (setting [3]); 64.5 nM in assay [1] (mutEGFR (D770_N771insSVD) kinase assay IC50, Table 2b (from US Priority Patent Application), mutEGFR D770_N771insSVD); 104 nM in assay [2] (Table 2a, D770_N771insNPG); 104 nM in assay [2] (Table 2b (from US Priority Patent Application), mutEGFR D770_N771insNPG); 2040 nM in the assay on BA/F3 (insSVD) cells (setting [4]); 2040 nM in the assay with BA/F3 (insSVD) cells (Mus musculus, BaF3, 48 h, Table 3b, Ba/F3 EGFR-insSVD).

Take `C=CC(=O)N1Cc2c(-c3ccncc3)c(-c3ccc(C(F)(F)F)cc3F)nn2C[C@@H]1C` [Example 124, 1-[(6S)-2-[2-fluoro-4-(trifluoromethyl)phenyl]-6-methyl-3-(pyridin-4-yl)-6,7-dihydropyrazolo[1,5-a]pyrazin-5(4H)-yl]prop-2-en-1-one]: the half-inhibitory concentration (IC50) in assay [1] (setting [3]) is 0.859 nM; in assay [2] (Table 2a, D770_N771insNPG), 2.08 nM; in the assay with BA/F3 (insSVD) cells (setting [4]) it was 30.4 nM.

On to `CN(C)C/C=C/C(=O)N1CCn2nc(-c3ccc(F)cc3)c(-c3ccnc4[nH]ccc34)c2C1` [Example 98, (2E)-4-(dimethylamino)-1-[2-(4-fluorophenyl)-3-(1H-pyrrolo[2,3-b]pyridin-4-yl)-6,7-dihydropyrazolo[1,5-a]pyrazin-5(4H)-yl]but-2-en-1-one], for which the half-maximal inhibitory concentration (IC50) turned out to be 10.4 nM in assay [1] (setting [3]); 11.6 nM in assay [2] (Table 2a, D770_N771insNPG); 209 nM in the assay with BA/F3 (insSVD) cells (setting [4]).

Consider `C=CC(=O)N1Cc2c(-c3ccncc3)c(-c3ccc4ccccc4c3)nn2CC1C` (racemic) [Example 232, 1-[(RS)-6-methyl-2-(naphthalen-2-yl)-3-(pyridin-4-yl)-6,7-dihydropyrazolo[1,5-a]pyrazin-5(4H)-yl]prop-2-en-1-one], for which the IC50 in assay [1] (setting [3]) came to 0.116 nM; in assay [2] (Table 2a, D770_N771insNPG), 0.164 nM; in the assay on BA/F3 (insSVD) cells (setting [4]) it was 15.5 nM.

For `C[C@H]1Cn2nc(-c3cccc(C#N)c3)c(-c3ccncc3)c2CN1C(=O)/C=C/CN(C)C` [Example 101, 3-[(6S)-5-[(2E)-4-(dimethylamino)but-2-enoyl]-6-methyl-3-(pyridin-4-yl)-4,5,6,7-tetrahydropyrazolo[1,5-a]pyrazin-2-yl]benzonitrile], the IC50 in assay [1] (setting [3]) turned out to be 16.8 nM; in assay [2] (Table 2a, D770_N771insNPG), 3.5 nM; in the assay on BA/F3 (insSVD) cells (setting [4]), 44.6 nM.

With `C=CC(=O)N1CCn2nc(-c3ccc(Cl)cc3F)c(-c3ccncc3C)c2C1` [Example 50, 1-[2-(4-chloro-2-fluorophenyl)-3-(3-methylpyridin-4-yl)-6,7-dihydropyrazolo[1,5-a]pyrazin-5(4H)-yl]prop-2-en-1-one], the IC50 in assay [1] (setting [3]) amounted to 8.5 nM; in assay [2] (Table 2a, D770_N771insNPG) it was 135 nM; with BA/F3 (insSVD) cells (setting [4]) it was 156 nM.

For `CN(C)C/C=C/C(=O)N1CCn2nc(-c3ccc(Cl)cc3F)c(-c3ccnc4[nH]ccc34)c2C1` [Example 103, (2E)-1-[2-(4-chloro-2-fluorophenyl)-3-(1H-pyrrolo[2,3-b]pyridin-4-yl)-6,7-dihydropyrazolo[1,5-a]pyrazin-5(4H)-yl]-4-(dimethylamino)but-2-en-1-one], the IC50 in assay [1] (setting [3]) was 3.7 nM; in assay [2] (Table 2a, D770_N771insNPG) it was 25.2 nM; with BA/F3 (insSVD) cells (setting [4]), 122 nM.

Turning to `O=C(/C=C/CN1CC(F)C1)N1CCn2nc(-c3ccc(Cl)cc3)c(-c3ccncc3)c2C1` [Example 172, (2E)-1-[2-(4-chlorophenyl)-3-(pyridin-4-yl)-6,7-dihydropyrazolo[1,5-a]pyrazin-5(4H)-yl]-4-(3-fluoroazetidin-1-yl) but-2-en-1-one], the 50% inhibitory concentration (IC50) in assay [1] (setting [3]) stood at 0.203 nM; in assay [2] (Table 2a, D770_N771insNPG) it was 1.21 nM; in the assay with BA/F3 (insSVD) cells (setting [4]), 43.2 nM.

As usually defined, the IC50 is the concentration that inhibits the measured activity by half. Low values mean greater potency in that assay, high ones weaker potency in that assay.
